Measurements as given in US9034897B2, “Indanyl-substituted 4,5,6,7-tetrahydro-1H-pyrazolo[4,3-C]pyridines, their use as medicament, and pharmaceutical preparations comprising them” (SANOFI, priority 2011, dated 2015).

tested on: left atrium of the anesthetized pig; test: Refractory period and left-atrial vulnerability in the anesthetized pig; type: in vivo; details: S2-induced left-atrial arrhythmias, bolus 1 mg/kg, first hour after administration, n = 2
Method: Investigation of the refractory period and the left-atrial vulnerability in the pig:
The compounds were tested for prolongation of the refractory period and antiarrhythmic activity on the atrium of the anesthetized pig as described in the literature (Knobloch et al. 2002. Naunyn-Schmiedberg's Arch. Pharmacol. 366; 482-487). Here the anti-arrhythmic action relates to the inhibition of the occurrence of episodes of arrhythmias which are induced by a prematurely placed extra-stimulus (S2) in the left atrium (=left-atrial vulnerability). The refractory period values are stated in percent of the basal values 15 minutes after injection. Mean values for the refractory periods are shown from three rates (150, 200 and 250/min). The inhibitory values for the inhibition of episodes of arrhythmias refer to 3 measurements (3 timepoints) before administration vs. 3 measurements during the first hour after administration of the compounds.
The action of 3-[5-Acetyl-1-((1R,2R)-6-chloro-4-fluoro-2-hydroxy-indan-1-yl)-4,5,6,7-tetrahydro-1H-pyrazolo[4,3-c]pyridin-3-yl]-benzonitrile (11j) on the refractory period of the left atrium and antiarrhythmic activity in the anesthetized pig after a bolus administration of 1 mg/kg is shown in table 12. From the results shown in table 12, it is seen that it was possible to prevent 82% of the induced arrhythmias.

Compound | % inhibition of the arrhythmias [%]
CC(=O)N1CCc2c(c(-c3cccc(C#N)c3)nn2[C@@H]2c3cc(Cl)cc(F)c3C[C@H]2O)C1 [Example 11j, 3-[5-Acetyl-1-((1R,2R)-6-chloro-4-fluoro-2-hydroxy-indan-1-yl)-4,5,6,7-tetrahydro-1H-pyrazolo[4,3-c]pyridin-3-yl]-benzonitrile] | 82

same assay, conditions: left atrium, bolus 1 mg/kg, 15 minutes after injection, mean of three rates (150, 200 and 250/min), n = 2

Compound | % increase in the refractory period [%]
CC(=O)N1CCc2c(c(-c3cccc(C#N)c3)nn2[C@@H]2c3cc(Cl)cc(F)c3C[C@H]2O)C1 [Example 11j, 3-[5-Acetyl-1-((1R,2R)-6-chloro-4-fluoro-2-hydroxy-indan-1-yl)-4,5,6,7-tetrahydro-1H-pyrazolo[4,3-c]pyridin-3-yl]-benzonitrile] | 20

target: Human TASK-1 channels (Homo sapiens (Human), UniProt O14649); test: Activity on the TASK-1 channel in Xenopus oocytes (two-microelectrode voltage clamp); type: cell-based; details: 5 μM; percentage inhibition of TASK-1 control current, Xenopus oocytes
Method: Determination of the activity on the TASK-1 channel in Xenopus oocytes:
Human TASK-1 channels were expressed in Xenopus oocytes. For this purpose, oocytes were isolated from Xenopus laevis and defolliculated. Subsequently, TASK-1-encoding RNA synthesized in vitro was injected into oocytes. After two days of TASK-1 protein expression, TASK-1 currents were measured by two-microelectrode voltage clamp. Data were acquired and analyzed using a TEC-10cx amplifier (NPI Electronic, Tamm, Germany) connected to an ITC-16 interface (Instrutech Corp., Long Island, USA) and Pulse software (HEKA Elektronik, Lambrecht, Germany). Oocytes were clamped to −90 mV and TASK-1 mediated currents were measured during 500 ms voltage pulses to 40 mV. Oocytes were continuously superfused with ND96 buffer containing: NaCl 96 mM, KCl2 mM, CaCl2 1.8 mM, MgCl2 1 mM, HEPES 5 mM (pH adjusted to 7.4 with NaOH). All experiments were performed at room temperature.
Test substances were consecutively added to the bath solution at rising concentrations. Compound effects were calculated as the percentage inhibition of
TASK-1 control current before compound application. IC50 values were obtained by fitting the data to the general dose-response equation.

Sequence of Human TASK-1 channels (O14649 whole entry): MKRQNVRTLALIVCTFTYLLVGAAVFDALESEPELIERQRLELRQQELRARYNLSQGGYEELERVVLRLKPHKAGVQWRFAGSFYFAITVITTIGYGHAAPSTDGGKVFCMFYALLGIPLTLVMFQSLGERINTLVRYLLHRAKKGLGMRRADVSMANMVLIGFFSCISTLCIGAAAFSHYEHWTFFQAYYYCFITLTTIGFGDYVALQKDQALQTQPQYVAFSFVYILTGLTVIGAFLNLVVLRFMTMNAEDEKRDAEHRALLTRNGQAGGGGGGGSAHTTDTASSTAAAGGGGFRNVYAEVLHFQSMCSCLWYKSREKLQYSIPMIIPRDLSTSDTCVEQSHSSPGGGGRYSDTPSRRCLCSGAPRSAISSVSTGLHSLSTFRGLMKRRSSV

inhibition at 5 µM [%] | Compound
39 | NC(=O)c1cccc(-c2nn([C@@H]3c4cc(F)cc(F)c4C[C@H]3O)c3c2CN(CCC(F)(F)F)CC3)c1 [Example 18h, 3-[1-((1R,2R)-4,6-Difluoro-2-hydroxy-indan-1-yl)-5-(3,3,3-trifluoro-propyl)-4,5,6,7-tetrahydro-1H-pyrazolo[4,3-c]pyridin-3-yl]-benzamide]
67 | CCCN1CCc2c(c(-c3ccc(F)cc3)nn2[C@@H]2c3cc(F)cc(F)c3C[C@H]2O)C1 [Example 18f, (1R,2R)-4,6-Difluoro-1-[3-(4-fluoro-phenyl)-5-propyl-4,5,6,7-tetrahydro-pyrazolo[4,3-c]pyridin-1-yl]-indan-2-ol]

same assay, conditions: human TASK-1 expressed in Xenopus oocytes, currents during 500 ms pulses to 40 mV, room temperature

Compound | IC50 [nM]
CC(=O)N1CCc2c(c(-c3cccc(C#N)c3)nn2[C@@H]2c3cc(Cl)cc(F)c3C[C@H]2O)C1 [Example 11j, 3-[5-Acetyl-1-((1R,2R)-6-chloro-4-fluoro-2-hydroxy-indan-1-yl)-4,5,6,7-tetrahydro-1H-pyrazolo[4,3-c]pyridin-3-yl]-benzonitrile] | 439
CC(=O)N1CCc2c(c(-c3cccc(F)c3)nn2[C@@H]2c3cc(F)cc(F)c3C[C@H]2O)C1 [Example 11aa, 1-[1-((1R,2R)-4,6-Difluoro-2-hydroxy-indan-1-yl)-3-(3-fluoro-phenyl)-1,4,6,7-tetrahydro-pyrazolo[4,3-c]pyridin-5-yl]-ethanone] | 2220
CC(=O)N1CCc2c(c(-c3cccc(C(F)(F)F)n3)nn2[C@@H]2c3cc(F)cc(F)c3C[C@H]2O)C1 [Example 11e, 1-[1-((1R,2R)-4,6-Difluoro-2-hydroxy-indan-1-yl)-3-(6-trifluoromethyl-pyridin-2-yl)-1,4,6,7-tetrahydro-pyrazolo[4,3-c]pyridin-5-yl]-ethanone] | 239
CC(=O)N1CCc2c(c(-c3cccc(C#N)c3)nn2[C@H]2c3cc(F)cc(F)c3C[C@@H]2O)C1 [Example 11o, 3-[5-Acetyl-1-((1S,2S)-4,6-difluoro-2-hydroxy-indan-1-yl)-4,5,6,7-tetrahydro-1H-pyrazolo[4,3-c]pyridin-3-yl]-benzonitrile] | 675
CC(=O)N1CCc2c(c(-c3cccc(C#N)c3)nn2[C@@H]2c3cc(F)cc(Br)c3C[C@H]2O)C1 [Example 11d, 3-[5-Acetyl-1-((1R,2R)-4-bromo-6-fluoro-2-hydroxy-indan-1-yl)-4,5,6,7-tetrahydro-1H-pyrazolo[4,3-c]pyridin-3-yl]-benzonitrile] | 226

Next, values leading:

IC50 [nM] | Compound
881 | CC(=O)N1CCc2c(c(-c3cccc(C#N)c3)nn2[C@@H]2c3cc(F)cc(F)c3C[C@H]2O)C1 [Example 11t, 3-[5-Acetyl-1-((1R,2R)-4,6-difluoro-2-hydroxy-indan-1-yl)-4,5,6,7-tetrahydro-1H-pyrazolo[4,3-c]pyridin-3-yl]-benzonitrile]
70 | CCC(=O)N1CCc2c(c(-c3cccc(C#N)c3)nn2[C@@H]2c3cc(F)cc(F)c3C[C@H]2O)C1 [Example 14a, 3-[1-((1R,2R)-4,6-Difluoro-2-hydroxy-indan-1-yl)-5-propionyl-4,5,6,7-tetrahydro-1H-pyrazolo[4,3-c]pyridin-3-yl]-benzonitrile]
773 | CC(=O)N1CCc2c(c(-c3cccc(C(F)(F)F)c3)nn2[C@@H]2c3cc(F)cc(F)c3C[C@H]2O)C1 [Example 11q, 1-[1-((1R,2R)-4,6-Difluoro-2-hydroxy-indan-1-yl)-3-(3-trifluoromethyl-phenyl)-1,4,6,7-tetrahydro-pyrazolo[4,3-c]pyridin-5-yl]-ethanone]
